Results published in patent US11091428B2 (HAPLOGEN GMBH, priority 2016, dated 2021).
Where two headings read alike, the source gives them in different places.

How the values were obtained:
[1] = target: T1, PLA2G16 (Homo sapiens, UniProt P53816); experiment: Enzyme activity assay for PLA2G16 (Red/Green BODIPY PC-A2 fluorescence); assay type: biochemical; settings: His-tagged PLA2G16, 4 min pre-incubation, 2 nM to 50 μM; read-out: IC50 values of the compounds determined in the enzyme activity assay for PLA2G16
T1 construct: Hexa-His (N); made in house; host or cells: E. coli BL21(DE3)
T1 sequence (P53816 1-162): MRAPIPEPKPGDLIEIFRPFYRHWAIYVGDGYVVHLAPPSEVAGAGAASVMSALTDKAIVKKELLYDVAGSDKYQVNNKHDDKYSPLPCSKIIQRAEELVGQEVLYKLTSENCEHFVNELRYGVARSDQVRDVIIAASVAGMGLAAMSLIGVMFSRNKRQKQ
From the text: A cDNA for PLA2G16(NM_007069) was custom-synthesized by Genscript (Piscataway, USA) and inserted into a pET-based bacterial expression vector [Moffatt, B. A. and Studier, F. W. (1986) J. Mol. Biol. 189, 113-130; Rosenberg, A. H., Lade, B. N., Chui, D., Lin, S., Dunn, J. J., and Studier, F. W. (1987) Gene 56, 125-135], enabling the expression of N-terminally Hexa-His-tagged PLA2G16. E. coli BL21(DE3) (Agilent) were transformed with pET-His-PLA2G16according to the manufacturer's instructions and plated on Carbenicillin-containing agar plates (final concentration: 100 μg/mL). A single clone was in occulated in 100 mL LB medium supplemented with 100 μg/mL Carbenicillin and the in occulated culture was grown at 37° C. overnight in a rotary shaker. On the next day, the bacterial culture was diluted in LB medium supplemented with 100 μg/mL Carbenicillin (30 mL overnight culture in 800 mL total culture volume). Bacteria were grown at 37° C. until the OD600 reached 0.6. Gene expression was induced by addition of 1 mM isopropyl-β-D-thiogalactopyranosid (IPTG) for 2 h at 18° C. Subsequently, bacteria were harvested by centrifugation (15 min; 10,000×g; 4° C.) and frozen at −80° C. The bacterial pellet was resuspended in Buffer A (50 mM Tris/HCl pH 7.5, 500 mM NaCl, 5% glycerol, 5 mM β-Mercaptoethanol and 1 mM PMSF) and lysed by addition of 1 mg/mL lysozyme (Sigma Aldrich) and 100 μg/mL DNasel-(Roche). The sample was incubated at 30° C. for 30 min to allow lysis to occur. Then, the lysate was cleared by centrifugation (15,000×g, 15 min, 4° C.) and incubated with 1.5 mL Ni-NTA agarose suspension (Qiagen) for 60 min at 4° C. The Ni-NTA agarose was washed with 10 mL Buffer A. Bound protein was eluted by applying a manual gradient of Buffer A supplemented with increasing concentrations of imidazole (Sigma Aldrich; 25/50/75/100/250 mM). Purified fractions were analyzed by SDS-PAGE followed by Coomassie staining to assess the purity.
Activity of the protein was assessed as follows: Red/Green BODIPY® PC-A2 (Invitrogen, 1 mM in DMSO) was mixed with equal volumes of 1,2-Dioleoyl-sn-glycero-3-phosphocholine (DOPC; Sigma Aldrich, 10 mM in Ethanol) and 1,2-Dioleoyl-sn-glycero-3-phospho-rac-(1-glycerol) (DOPG; Sigma Aldrich, 10 mM in Ethanol) and 0.5 volumes of Cholesterol (CHOL; Sigma Aldrich, 10 mM in Ethanol) and vortexed for 5 s. The mixture (Red/Green BODIPY® PC-A2/DOPC/DOPG/CHOL) was diluted 1:91.4 in activity assay buffer (50 mM Tris/HCl pH 8.5, 100 mM NaCl) using a small-orifice pipette tip under constant vortexing. In the following, this preparation will be referred to as the “substrate solution”.
In order to evaluate their inhibitory potential, compounds were dissolved at 10 mM concentration in DMSO and directly spotted into assay plates (Corning, Cat. No. 3576) using acoustic liquid transfer (Labcyte Echo 525). Each compound was spotted at increasing concentrations, ranging from 2 nM to 50 μM (concentration in the final assay volume). 50 μl of PLA2G16 enzyme solution (diluted in activity buffer, supplemented with 5 mM L-Glutathione; Sigma Aldrich) was pre-incubated with compounds for 4 min., followed by addition of 50 μl of substrate solution. Fluorescence was recorded immediately after substrate addition for a total time of 10 min. using a SpectraMax M5 multimode reader (Excitation wavelength: 480 nm, emission wavelength: 530 nm). The relative increase of fluorescence over time is referred to as the enzyme activity. Half-maximal inhibitory concentrations (IC50) were derived by non-linear regression analysis using the drc package in R (R Development. Core Team, 2005).

[2] = system: picornaviruses (CVB1, HRV-A2, HRV-A23, EV-68); experiment: Anti-picornavirus cytopathic effect (CPE) reduction assay on HeLa H1 cells; assay type: cell-based; settings: Enterovirus B
Procedure: The antiviral activity of selected compounds was tested using a cytopathic effect (CPE) reduction assay on HeLa H1 cells (ATCC CRL-1958). Briefly, cells were seeded in 96-well dishes (2×10^4 cells/well) in DMEM medium (Life technologies) supplemented with 10% FBS and PenStrep solution (100 U/mL Penicillin and 100 μg/mL streptomycin) and incubated at 37° C., 5% CO2 ovemight. The next day, cells were pre-treated with serial dilutions of the compound in DMEM medium supplemented with 2% FBS and PenStrep for 2 h at 37° C., 5% CO2. Next, cells were infected with virus (CVB1, HRV-A2, HRV-A23, EV-68) at an multiplicity of infection (MOI) which results in a complete virus-induced CPE within 2 days in control wells (infected and vehicle-treated). After 48 h, supematants were aspirated and 50 μl/well of CellTiterBlue reagent (Promega) diluted 1:5 in DMEM+2% FBS, was added to the cells. Plates were returned to the incubator and allowed to develop for 1.5 h. After that, plates were equilibrated to RT and subsequently, fluorescence was recorded (Excitation wavelength: 560 nm; emission wavelength: 590 nm) using a SpectraMax M5 multimode plate reader. Viability of cells was calculated according to the formula: V=(RFUCpd−RFUVeh/(RFUM−RFUVeh), where RFUCpd refers to infected and compound-treated cells, RFUVeh to infected and vehicle-treated cells and RFUM to uninfected and vehicle treated cells. Half-maximal effective concentrations (EC50) were calculated by non-linear regression analysis using the drc package in R (R Development. Core Team, 2005). EC50 categories as presented in Table 2 were calculated by averaging the EC50 values from four picornaviruses (CVB1, HRV-A2, HRV-A23, EV68).

[3] = HeLa H1, 48 h, HeLa H1 cells, 48 h, category from averaging the EC50 values from four picornaviruses (CVB1, HRV-A2, HRV-A23, EV68), read-out: EC50 values of the compounds determined in the anti-picornavirus assay
[4] = HeLa H1, 48 h, read-out: EC50 values of the compounds determined in the anti-picornavirus assay, HeLa H1 cells, 48 h, category from averaging the EC50 values from four picornaviruses (CVB1, HRV-A2, HRV-A23, EV68)

Compound	IC50 [1]	EC50 [2, 3]	EC50 ([2]; CVB1|EV68|HRVA2|HRVA23, HeLa H1, 48 h, HeLa H1 cells, 48 h, category from averaging the EC50 values from four picornaviruses (CVB1, HRV-A2, HRV-A23, EV68), read-out: EC50 values of the compounds determined in the anti-picornavirus assay)	EC50 [2, 4]
O=C(NC1CN(C(=O)C2CCC2)C1)C(=O)[C@H]1CCC(=O)N1Cc1ccccc1 [FP 318, 2-[(2R)-1-Benzyl-5-oxopyrrolidin-2-yl]-N-(1-cyclobutanecarbonylazetidin-3-yl)-2-oxoacetamide]	< 1000 nM	1000 to 10000 nM		
COc1ccccc1N(C=O)C(C)C(=O)C(=O)NCc1ccc(F)c(Cl)c1 (stereo not shown) [FP 93, N-[(3-Chloro-4-fluorophenyl)methyl]-3-[A (2-methoxyphenyl)formamido]-2-oxobutanamide]	< 1000 nM	< 1000 nM		
COc1ccccc1N(C=O)C(C)C(=O)C(=O)NCc1cc(F)cc(Cl)c1 (stereo not shown) [FP 94, N-[(3-Chloro-5-fluorophenyl)methyl]-3-[N-(2-methoxyphenyl)formamido]-2-oxobutanamide]	< 1000 nM	< 1000 nM		
CC(C(=O)C(=O)NCC1CCCCC1)N(C=O)C1CCCCC1 (stereo not shown) [FP 52, 3-(N-Cyclohexylformamido)-N-(cyclohexylmethyl)-2-oxobutanamide]	< 1000 nM	< 1000 nM		
CC(C)S(=O)(=O)N1CCC(NC(=O)C(=O)[C@H]2CCC(=O)N2Cc2ccccc2)CC1 [FP 323, 2-[(2R)-1-Benzyl-5-oxopyrrolidin-2-yl]-2-oxo-N-[1-(propane-2-sulfonyl)piperidin-4-yl]acetamide]	< 1000 nM	< 1000 nM		
CC(C)NC(=O)C(=O)C1CCC(=O)N1Cc1ccccc1 (stereo not shown) [FP 308, 2-(1-Benzyl-5-oxopyrrolidin-2-yl)-2-oxo-N-(propan-2-yl)acetamide]	< 1000 nM	< 1000 nM		
O=C(NC1CC1)C(=O)[C@H]1CCC(=O)N1Cc1ccccc1	< 1000 nM		< 1000 nM	
COc1ccccc1N(C=O)C(C)C(=O)C(=O)NC(C)C (stereo not shown) [FP 28, 3-[N-(2-Methoxyphenyl)formamido]-2-oxo-N-(propan-2-yl)butanamide]	< 1000 nM	1000 to 10000 nM		
C[C@H]1CC(=O)N(Cc2ccccc2)[C@H]1C(=O)C(=O)NCC1CC1 (single isomer, unassigned) [FP 337]	< 1000 nM	< 1000 nM		
CC(C(=O)C(=O)NCc1cccc(Cl)c1)N(C=O)C1CCOCC1 (stereo not shown) [FP 22, N-[(3-Chlorophenyl)methyl]-3-[N-(oxan-4-yl)formamido]-2-oxobutanamide]	< 1000 nM	1000 to 10000 nM		
COc1ccc(F)cc1N(C=O)C(C)C(=O)C(=O)NCc1cccc(Cl)c1 (stereo not shown) [FP 7, N-[(3-Chlorophenyl)methyl]-3-[N-(5-fluoro-2-methoxyphenyl)formamido]-2-oxobutanamide]	< 1000 nM	< 1000 nM		
CC(C)C(=O)N1CCC(NC(=O)C(=O)[C@H]2CCC(=O)N2Cc2ccccc2)CC1 [FP 315, 2-[(2R)-1-Benzyl-5-oxopyrrolidin-2-yl]-N-[1-(2-methylpropanoyl)piperidin-4-yl]-2-oxoacetamide]	< 1000 nM	1000 to 10000 nM		
O=CN(Cc1ccccc1)[C@@H](Cc1cn(C(c2ccccc2)(c2ccccc2)c2ccccc2)cn1)C(=O)C(=O)NCC1CC1 [FP 117, (3S)-3-(N-Benzylformamido)-N-(cyclopropylmethyl)-2-oxo-4-[1-(triphenylmethyl)-1H-imidazol-4-yl]butanamide]	< 1000 nM	< 1000 nM		
CC(C)NC(=O)C(=O)C(C)N(C=O)Cc1ccccc1 (stereo not shown) [FP 57, 3-(N-Benzylformamido)-2-oxo-N-(propan-2-yl)butanamide]	< 1000 nM	1000 to 10000 nM		
CCC(NS(=O)(=O)c1ccccc1)C(=O)C(=O)NCC1CC1 (stereo not shown) [FP 216, 3-Benzenesulfonamido-N-(cyclopropylmethyl)-2-oxopentanamide]	< 1000 nM	1000 to 10000 nM		
N#CC1(CNC(=O)C(=O)[C@H]2CCC(=O)N2Cc2ccccc2)CC1 [FP 290, 2-[(2R)-1-Benzyl-5-oxopyrrolidin-2-yl]-N-[(1-cyanocyclopropyl)methyl]-2-oxoacetamide]	< 1000 nM	1000 to 10000 nM		
O=C(NCCF)C(=O)[C@H]1CCC(=O)N1Cc1ccccc1 [FP 282, 2-[(2R)-1-Benzyl-5-oxopyrrolidin-2-yl]-N-(2-fluoroethyl)-2-oxoacetamide]	< 1000 nM	< 1000 nM		
O=C(NCC1CC1)C(=O)[C@@H]1CCC(=O)N1Cc1ccccc1 [FP 225, 2-[(2S)-1-Benzyl-5-oxopyrrolidin-2-yl]-N-(cyclopropylmethyl)-2-oxoacetamide]				> 10000 nM
CC(OCC1CCCCC1)C(=O)C(=O)NCC1CC1 (stereo not shown) [FP 123, 3-(Cyclohexylmethoxy)-N-(cyclopropylmethyl)-2-oxobutanamide]				1000 to 10000 nM
COCC(=O)N(C)C(C)C(=O)C(=O)NCC1CCCCC1 (stereo not shown) [FP 148, N-(Cyclohexylmethyl)-3-(2-methoxy-N-methylacetamido)-2-oxobutanamide]	< 1000 nM			
COc1ccccc1N(C=O)C(C)C(=O)C(=O)NCc1ccccc1 (stereo not shown) [FP 88, N-Benzyl-3-[N-(2-methoxyphenyl)formamido]-2-oxobutanamide]	< 1000 nM			
COc1ccccc1N(C=O)[C@@H](C)C(=O)C(=O)NCc1cccc(Cl)c1 (single isomer, unassigned) [FP 3]	< 1000 nM			
O=C(NC1CC1)C(=O)C1CCC(=O)N1Cc1ccccc1Cl (stereo not shown) [FP 260, 2-{1-[(2-Chlorophenyl)methyl]-5-oxopyrrolidin-2-yl}-N-cyclopropyl-2-oxoacetamide]	< 1000 nM			
